Patent US20210352950A1 (priority 2019, published 2021)

Experiments:
[1] = tested on: KRAS mutant cancer cells (HCT116, DLD-1, CT26.WT, H23, H727, PANC1); experiment: Muse cell viability assay, KRAS mutant panel; type: cell-based, human and murine; settings: CTR condition, vitamin C ≥0.3 mM, 24 hours
[2] = tested on: Phosphorylated histone H2AX; experiment: Histone H2AX phosphorylation (DNA damage, western blot); type: cell-based, human and murine; settings: HCT116 and CT26.WT, STS 24 hours + vitamin C 350 μM 3 hours
Description: Cells were washed twice in ice-cold PBS and lysates were prepared in RIPA lysis buffer (50 mM Tris HCl pH 7.4, 150 mM NaCl, 1% NP-40, 0.25% deoxycholic acid, 1 mM EDTA) supplemented with protease and phosphatase inhibitors (protease inhibitor cocktail set III EDTA-free, Calbiochem, Cat. #: S39134; PhosStop, Roche), Samples were sonicated (bioruptor plus, diogenode) and centrifuged at 16.1 g for 30 minutes at 4° C. Tumor tissues were collected and snap frozen in liquid nitrogen immediately after mice were sacrificed, and stored in -80° C. until use. […] Protein concentrations were determined by BCA assay (Thermo Fisher Scientific, Cat. #: 23225). Proteins were diluted in 1× Laemmli sample buffer, boiled at 95° C. for 5 minutes and 30 μg of total proteins were separated by using SDS-PAGE and analyzed by western blotting by standard procedures. […] Membranes were incubated overnight at 4° C. with gentle shaking with the following primary antibodies: […] ADI-SPA894), FTH (1:1000, Cell Signaling, Cat. #: 3998), AMPK (1:1000, Cell Signaling, Cat. #: 2532), phospho-[…] AMPK (1:1000, Cell Signaling, Cat. #: 2535), eIF2a (1:1000, Cell signaling, Cat. #: 5324), phospho […] eIF2a (1:1000, Cell signaling, Cat. #: 3597), AKT (1:1000, Cell Signaling, Cat. #: 9272), phospho-[…] […] Bands intensity was quantified with NIH Image J software (version 1.48v).

O=C1O[C@H]([C@@H](O)CO)C(O)=C1O [vitamin C, ascorbic acid]
sensitivity to vitamin C [1]: modest sensitivity
DNA damage measured by phosphorylation level of histone H2AX [2]: strongly induced DNA damage
